# Measured values: patent US6849578B1, “Selective herbicides based on 2,6-disubstituted pyridine derivatives” (Bayer Aktiengesellschaft, priority 1999, dated 2005)
# How the values were obtained:
# Type in all cases: in vivo
# Avenua = test: Post-emergence greenhouse test, % damage; conditions: after about 3 weeks
# Description: (§1) The expected activity for a given combination of two herbicides can be calculated as follows (cf. COLBY, S. R.: “Calculating synergistic and antagonistic responses of herbicide combinations”, Weeds 15, pages 20-22, 1967): • If X=% damage by herbicide A (active compound of the formula (I) at an application rate of p kg/ha • and Y=% damage by herbicide B (active compound of the formula II) at an application rate of q kg/ha • and E=the expected damage of the herbicides A and B at application rates of p and q kg/ha, • then E=X+Y−(X*Y/100).
# (§2) Customary formulations of the active compounds in question were used. Propoxycarbazone-sodium was used as 70 WG, flufenacet as 60 WG and picolinafen as 75 WG formulation. From the active compounds, an aqueous spray liquor containing 0.1% of the additive Renex-36 was prepared.
# (§3) Test plants are grown in a greenhouse under controlled conditions (temperature and light conditions). When the plants have reached a height of 5 to 15 cm, they are sprayed with the test solution. The concentration of the spray liquor is chosen such that the particular amounts of active compound desired are applied in 500 l of water/ha.
# (§4) After the spray treatment, the plant containers are stored in a greenhouse at constant light and temperature conditions.
# (§5) After about 3 weeks, the degree of damage to the crop plants is rated in % damage in comparison to the development of the untreated control.
# (§6) The figures denote: • 0%=no damage (like untreated control) • 100%=total destruction/damage
# Cassia = test: Post-emergence greenhouse test, % damage; conditions: Table A-4, after about 3 weeks
# Description: as §1, §2, §3, §4, §5, §6
# Digitaria = test: Post-emergence greenhouse test, % damage; conditions: Table A-2, after about 3 weeks
# Description: as §1, §2, §3, §4, §5, §6
# Echinochloa = test: Post-emergence greenhouse test, % damage; conditions: Table A-3, after about 3 weeks
# Description: as §1, §2, §3, §4, §5, §6
# Ipomoea = test: Post-emergence greenhouse test, % damage; conditions: Table A-5, after about 3 weeks
# Description: as §1, §2, §3, §4, §5, §6
# Viola = test: Post-emergence greenhouse test, % damage; conditions: Table A-6, after about 3 weeks
# Description: as §1, §2, §3, §4, §5, §6
# Galium = test: Outdoor trials in cereal, post-emergence spring, herbicidal activity; conditions: about 8-10 weeks after application
# Description: as §1
# (§7) To examine a possible synergism, the compounds picolinafen and propoxycarbazone-sodium were tested under outdoor conditions in cereal against economically important weed grasses. The small-plot experiments were conducted on areas used for agricultural cultivation.
# (§8) The active compounds were applied in spring by the post-emergence method and over the entire area, using spray application with a medium droplet size. To prepare an advantageous preparation of active compound, the active compounds were formulated as 70 WG (70% w/w water-dispersible powder) or 75 WG (75% w/w water-dispersible powder) and suspended in water. The spray liquor was then applied in a water application rate customarily used in practice.
# (§9) About 8-10 weeks after the application of the spray liquor, the herbicidal activity was scored visually. The figures denote: • 0%=no herbicidal effect, • 100%=total destruction of the crop or the weeds.
# Lactuca = test: as above; conditions: about 8-10 weeks after application
# Description: as §1, §7, §8, §9
# Legousia = test: as above; conditions: about 8-10 weeks after application
# Description: as §1, §7, §8, §9
# Matricaria ch. = test: as above; conditions: about 8-10 weeks after application
# Description: as §1, §7, §8, §9
# Matricaria in. = test: as above; conditions: about 8-10 weeks after application
# Description: as §1, §7, §8, §9
# Stellaria = test: as above; conditions: about 8-10 weeks after application
# Description: as §1, §7, §8, §9
structure (smiles),measurement,setting,value
"CC(C)N(C(=O)COc1nnc(C(F)(F)F)s1)c1ccc(F)cc1 [flufenacet, N-isopropyl-N-(4-fluorophenyl)-(5-trifluoromethyl-1,3,4-thiadiazol-2-yl-oxy)-acetamide]",Avenua observed,"Avenua; 30 g of ai/ha, Table A-1",10%
same,Avenua observed,"Avenua; 60 g of ai/ha, Table A-1",10%
same,Cassia observed,Cassia; 125 g of ai/ha,0%
same,Digitaria observed,Digitaria; 60 g of ai/ha,0%
same,Digitaria observed,Digitaria; 125 g of ai/ha,10%
same,Echinochloa observed,Echinochloa; 60 g of ai/ha,60%
same,Ipomoea observed,Ipomoea; 60 g of ai/ha,30%
same,Ipomoea observed,Ipomoea; 125 g of ai/ha,30%
same,Viola observed,Viola; 60 g of ai/ha,0%
"O=C(Nc1ccc(F)cc1)c1cccc(Oc2cccc(C(F)(F)F)c2)n1 [picolinafen, N-(4-fluorophenyl)-6-[3-(trifluoromethyl)phenoxy]-2-pyridinecarboxamide]",Avenua observed,"Avenua; 8 g of ai/ha, Table A-1",0%
same,Avenua observed,"Avenua; 15 g of ai/ha, Table A-7",10%
same,Avenua observed,"Avenua; 15 g of ai/ha, Table A-8",0%
same,Avenua observed,"Avenua; 15 g of ai/ha, Table A-9",70%
same,Avenua observed,"Avenua; 30 g of ai/ha, Table A-1",20%
same,Avenua observed,"Avenua; 30 g of ai/ha, Table A-7",20%
same,Avenua observed,"Avenua; 30 g of ai/ha, Table A-8",20%
same,Avenua observed,"Avenua; 30 g of ai/ha, Table A-9",70%
same,Cassia observed,Cassia; 30 g of ai/ha,40%
same,Digitaria observed,Digitaria; 30 g of ai/ha,50%
same,Echinochloa observed,Echinochloa; 8 g of ai/ha,10%
same,Ipomoea observed,Ipomoea; 8 g of ai/ha,70%
same,Ipomoea observed,Ipomoea; 15 g of ai/ha,70%
same,Ipomoea observed,Ipomoea; 30 g of ai/ha,70%
same,Viola observed,Viola; 8 g of ai/ha,90%
same,Galium observed,Galium; 75 g of ai/ha,30%
same,Lactuca observed,Lactuca; 75 g of ai/ha,0%
same,Legousia observed,Legousia; 75 g of ai/ha,0%
same,Matricaria ch. observed 1st location,Matricaria ch.; 75 g of ai/ha,0%
same,Matricaria ch. observed 2nd location,Matricaria ch.; 75 g of ai/ha,0%
same,Matricaria in. observed,Matricaria in.; 75 g of ai/ha,45%
same,Stellaria observed,Stellaria; 75 g of ai/ha,20%
"CCCOc1nn(C(=O)NS(=O)(=O)c2ccccc2C(=O)OC)c(=O)n1C.[Na] [propoxycarbazone-sodium, methyl 2-[[[(4,5-dihydro-4-methyl-5-oxo-3-propoxy-1H-1,2,4-triazol-1-yl)carbonyl]-amino]-sulphonyl]-benzoate sodium salt]",Avenua observed,"Avenua; 15 g of ai/ha, Table A-7",50%
same,Avenua observed,"Avenua; 15 g of ai/ha, Table A-8",0%
same,Avenua observed,"Avenua; 15 g of ai/ha, Table A-9",0%
same,Avenua observed,"Avenua; 30 g of ai/ha, Table A-7",50%
same,Avenua observed,"Avenua; 30 g of ai/ha, Table A-8",20%
same,Avenua observed,"Avenua; 30 g of ai/ha, Table A-9",0%
same,Avenua observed,"Avenua; 60 g of ai/ha, Table A-7",60%
same,Avenua observed,"Avenua; 60 g of ai/ha, Table A-9",0%
same,Galium observed,Galium; 42 g of ai/ha,0%
same,Lactuca observed,Lactuca; 42 g of ai/ha,10%
same,Legousia observed,Legousia; 42 g of ai/ha,0%
same,Matricaria ch. observed 1st location,Matricaria ch.; 42 g of ai/ha,60%
same,Matricaria ch. observed 2nd location,Matricaria ch.; 42 g of ai/ha,10%
same,Matricaria in. observed,Matricaria in.; 42 g of ai/ha,75%
same,Stellaria observed,Stellaria; 42 g of ai/ha,30%
